# From patent EP1002537A1, “Use of melarsoprol for the manufacture of a medicament for treating B-cell lymphoproliferative diseases, such as multiple myeloma” (ASSISTANCE PUBLIQUE, HOPITAUX DE PARIS, priority 1998, dated 2000)
# pIC50: −log10 of the molar value.
# Experiments:
# myeloma cells = assay: Growth and survival of myeloma cells (summary statement); assay type: cell-based, human
# Description: According to the present invention, melarsoprol reduces the growth and survival of myeloma cells by triggering programmed cell death.
# This supports the clinical efficacy of the melarsoprol in patients with multiple myeloma. Indeed, melarsoprol is active at concentrations ranging from 10^-6 to 10^-8 mol/L, which correspond to the in vivo pharmacological concentrations of the drugs.
# [1] = SCID mice transplanted with human myeloma cells: toxicity and arsenic amounts; assay type: in vivo; settings: any studied organ, especially the liver
# Protocol: (§1) SCID mice were irradiated before the intra-peritoneal (IP) injection of 3 to 5*10^6 plasma cells purified from peripheral blood of patients with plasma cell leukemia. Engrafment was assessed by bi-monthly measurement of the human monoclonal immunoglobulin (HuMIg) concentration in mouse serum, using an ELISA.
# Arsenic amounts in mouse serum and tissues were in the expected 〈〈 pharmacological 〉〉 range.
# NCI cells [2] = assay: Growth inhibition of plasma cell line (cell count and thymidine incorporation); assay type: cell-based, human
# Protocol: (§2) The human myeloma cell lines were purchased from DMS (Braunschweig, Germany) (NCI H929 and LP1) and from American Type Culture Collections (Rockville, MD) (OPM2 and U266). NCI, OPM2, U266 (and all studied non plasmacytic cell lines) were cultured in RPMI 1640 supplemented with 1% penicillin/streptomycin, 1 mmol/L L-glutamine and 10% heat-inactivated fetal calf serum at 37°C, 5% CO2 in air. LP1 cells were cultured in similar conditions, in Iscove's medium.
# (§3) Cells were incubates with or without 10^-5 to 10^-8 mol/L melarsoprol up to 96 hours, without any adjustment after culture initiation. Cell number and viability were determined by trypan blue exclusion. Morphologic analysis was performed using Wright-Giema and DAPI (4'-6-diamidino-2-phenylindole) staining on cytocentrifuge preparations. For proliferation assays, aliquots of 2x10^4 cells in triplicate were incubated in 96-well plates and 3H-thymidine (3H-TdR) (1 µCi) was added for the final 8 hours of the culture period. Cells were harvested onto glass filter and ^3H-TdR incorporation was counted on a liquid scintillation counter.
# (§4) The growth of NCI, U266, OPM2 and LP1 plasma cell lines in medium alone or in the presence of melarsoprol (10^-5 to 10^-8 mol/L) was assessed by cell count and thymidine incorporation.
# OPM2 cells = assay: as above; assay type: cell-based, human
# Protocol: as §2, §3, §4
# U266 = assay: as above; assay type: cell-based, human; settings: U266 cells
# Protocol: as §2, §3, §4
# LP1 cells [3] = assay: as above; assay type: cell-based, human
# Protocol: as §2, §3, §4
# [4] = test system: secreting multiple myeloma; assay: Bi-central, open, non-comparative study in patients with secreting multiple myeloma; assay type: in vivo; settings: IV 1mg/kg first day, then 2mg/kg daily, not longer than 56 days
# Protocol: A bi-central, open, non-comparative study of melarsoprol in patients suffering from secreting multiple myeloma was carried out.
# Patients with secreting multiple myeloma included in the study had been pretreated with and were unresponsive to a minimum of 3 VAD (vincristine-adriamycine-dexamethasone) or VAMP (vincristine-adriamycine-methylprednisolone) chemotherapy regimens.
# Patients are treated daily with co-administration of anti-convulsive and B1 vitamin for 56 days if allowed by toxicity.
# At the first day, the IV solution of melarsoprol (1mg/kg) is administered in 3 intravenous injections.
# The IV solution of melarsoprol (2mg/kg) is then administered daily and for a time period not longer than 56 days in the same manner. […]
# [5] = test system: Mononuclear cells purified from peripheral blood of normal donors; assay: Pokeweed mitogen (PWM)-induced plasma cell differentiation of normal lymphocytes; assay type: cell-based, human; settings: 10^-6 mol/L and 5 x10^-7 mol/L
# Protocol: Mononuclear blood cells of 3 normal donors were cultured in the presence of PWM (from Life Technology, Cergy Pontoise, diluted at 1/100) and melarsoprol (5 x 10^-7 or 10^-6 mol/L). Plasma cells were numerated at day 7 after immunofluorescence staining with fluorescein-conjugated antibodies directed against human Ig chains, IgM concentrations in supernatants were also measured at day 5, by ELISA, as previously described (Grillot-Courvalin C et al, Scand. J. Immunol. 23:679, 1986).
# Mononuclear cells purified from peripheral blood of normal donors were incubated with pokeweed mitogen in the presence of two different concentrations (10^-6 mol/L and 5 x10^-7 mol/L) of the organic or of the inorganic arsenical.
# OPM2 = assay: Cell survival by trypan blue exclusion; assay type: cell-based, human; settings: OPM2, after 48 hours, 10-6 mol/L melarsoprol
# Protocol: as §2, §3
# (§5) Treatment of plasma cell lines with melarsoprol led to a dose- and time dependent inhibition of cell survival, as determined using trypan blue exclusion. After 48 hours, in the presence of 10-6 mol/L melarsoprol , percentage of trypan blue negative cells were 15 ± 7.2, 56 ± 11, 62 ± 5 8, and 81 ± 6.8% in NCI, OPM2, U266 and LP1 cells, respectively. Cell death was mainly due to apoptosis, as shown by the characteristic morphological changes in nuclei as well as by the TUNEL method.
# NCI = assay: Cell survival by trypan blue exclusion; assay type: cell-based, human; settings: after 48 hours, 10-6 mol/L melarsoprol
# Protocol: as §2, §3, §5
# LP1 cells [6] = assay: Cell survival by trypan blue exclusion; assay type: cell-based, human; settings: LP1, after 48 hours, 10-6 mol/L melarsoprol
# Protocol: as §2, §3, §5
# leukemia = settings: IV daily for 3 days, repeated weekly for 3 weeks, 1 to 3,6mg/kg; cited from earlier work
# [7] = test system: plasma-cell enriched preparations of myeloma patients; assay: Growth (3H TdR uptake) of fresh myeloma cells; assay type: cell-based; settings: Homo sapiens; three plasma-cell preparations; read-out: IC50 (inhibition of cell growth)
# Description: (§6) Eleven patients with multiple myeloma (MM) or plasma cell leukemia (PCL) were studied after informed consent. Mononuclear cells were separated by Ficoll-Hypaque centrifugation from peripheral blood of 4 patients with PCL (including 2 with a primary PCL), from bone marrow (BM) of 6 patients with MM (including 4 at diagnosis) and from the pleural effusion of a newly diagnosed myeloma patient. Plasma cell-enriched preparations were obtained by centrifugation of mononuclear cells on a Percoll gradient, as previously described (Iwato K, et al, Blood 72:562, 1988). Plasma cell percentages were determined after intracytoplasmic staining using fluorescein-conjugated antibodies to human immunoglobulin (Ig) heavy and light chains (from Nordic, Tilburg, The Netherlands).Short-term cultures of blood and BM mononuclear cells and of plasma cell-enriched preparations were performed in RPMI 1640, in similar conditions as cell lines.
# (§7) Cells were incubates with or without 10^-5 to 10^-8 mol/L melarsoprol up to 96 hours, without any adjustment after culture initiation. Cell number and viability were determined by trypan blue exclusion. Morphologic analysis was performed using Wright-Giema and DAPI (4'-6-diamidino-2-phenylindole) staining on cytocentrifuge preparations. […] Cells were harvested onto glass filter and ^3H-TdR incorporation was counted on a liquid scintillation counter. […]
# [8] = test system: plasma cells (CD38^higt +); assay: FACS analysis of patients' bone marrow mononuclear cells (annexin V with CD38 or CD15); assay type: cell-based, human
# Description: as §6
# (§8) Direction of phosphatidylserine on the outer leaflet of apoptotic cells was performed using Annexin-V-FLUOS (Boehringer Mannheim, Germany) and propidium iodide (PI) according to the manufacturer's recommendations. Expression of cell surface CD38, CD138 (BB-4° and CD15 antigens was studied using corresponding fluorescein isothiocyanate (FITC) or phycierythrin conjugated antibodies that were purchased from Diaclone (Besançon, France) and Becton Dickinson (San Jose, Ca.). Flow cytometry was performed with a FACSean apparatus (Beckton Dickinson).
# (§9) To comparatively assess the effects of melarsoprol on myeloid and plasma cells, bone marrow mononuclear cells obtained from patients with newly diagnosed multiple myeloma were cultured for 5 days in the presence of 10^-6 mol/L melarsoprol. […] Indeed, in a representative study a bone marrow sample initiality containing 30% of plasma cells (CD38^higt +), 12% of the latter expressed annexin V after 2 days of culture with 10^-6 mol/L melarsoprol, whereas less than 1% of myeloid cells (CD38^low, CD15 +) were positive for the apoptosis marker. At day 5, the plasma cell number had much more decreased than the myeloid cell number and viable cells (propidium iodide negative) contained 7.8 % of CD38^higt positive cells, as compared to 22.5 % in control culture, performed with medium alone. CD15+ myelo-monocytic cell percentages were similar in arsenic-exposed cultures and in controls, with a decrease in the CD15^low+ fraction.
# [9] = test system: myeloid cells (CD38^low, CD15 +); assay: as above; assay type: cell-based, human
# Description: as §6, §8, §9
# NCI cells [10] = assay: DNA fragmentation by agarose gel electrophoresis of genomic DNA; assay type: cell-based, human; settings: NCI cells treated with 10^-6 mol/L
# [11] = test system: plasma-cell enriched preparations of myeloma patients; assay: Viability (trypan blue exclusion) of fresh myeloma cells; assay type: cell-based, human; settings: 48 hours, n=4 (40 to 77.5%); 10.5 ± 14.7% without the drug
# Description: as §6, §7
# [12] = test system: T, myeloid and epithelial cell lines; assay: Comparative example: growth of other hematopoietic cell types; assay type: cell-based
# Protocol: as §2, §3
# In addition to plasma cell, other hematopoietic cell types were also studied. The inhibition of growth was marginal in T, myeloid and epithelial cell lines.
# NCI cells [13] = assay: FACS analysis after annexin-V and propidium iodide staining; assay type: cell-based, human; settings: 10^-6 mol/L
# Protocol: as §8
# (§10) FACS analysis of NCI and U266 cells after staining with fluorescein-labelled annexin-V and propidium iodide was performed to detect the translocation of phosphatidylserine from the inner part of plasma membrane to the outer layer which accurs in the early stages of apoptosis. Before staining, cells were cultivated with medium alone) melarsoprol (10^-6 mol/L) or dexamethasone (Dex, 10^-6 mol/L) over a time period of 48 hours. […] During the same time; the number of double positive necrotic cells increased and, at 18 hours, only very few double-negative living cells were detectable. Apoptosis was moderate in cells cultured with Dex and in control culture. Annexin-positive, PI-negative apoptotic U266 cells were also observed in the presence of melarsoprol (18% of residual cells after a 18-hour culture).
# U266 cells = assay: as above; assay type: cell-based, human; settings: 10^-6 mol/L, 18-hour culture
# Protocol: as §8, §10
# human myeloma cells = assay: SCID mice transplanted with human myeloma cells: efficacy; assay type: in vivo; settings: 30µg/g 5 days a week IP, 30 to 40 days
# Protocol: The following studies of melarsoprol conducted in SCID mice transplanted with human myeloma cells confirm in vivo the in vitro effects of the arsenical compound.
# as §1
# Mice injected with the cells from 3 different patients developed the human tumor and were treated with melarsoprol during 30 to 40 days.
# [14] = 2 days of culture, 10^-6 mol/L, representative bone marrow sample
smiles,measurement,setting,value
"Nc1nc(N)nc(Nc2ccc([As]3SCC(CO)S3)cc2)n1 (stereo not drawn) [melarsoprol, 2-p-[(4,6-diamino-s-triazin-2-yl)amino]phenyl-4-hydroxymethyl-1,3,2-dithiarsoline]",active concentrations,myeloma cells,10^-6 to 10^-8 mol/L
same,toxic lesions in studied organs,[1],no evidence of toxic lesions
same,time-dependent inhibition of growth,NCI cells [2],marked time-dependent inhibition of growth
same,IC50,"NCI cells [2]; Homo sapiens, 72 hours, cell number and thymidine incorporation, read-out: 50% growth inhibitory concentration (IC50) (converted)",300 nM
same,time-dependent inhibition of growth,OPM2 cells,marked time-dependent inhibition of growth
same,pIC50,"OPM2 cells; Homo sapiens, OPM-2, growth inhibition",~7.00
same,pIC50,"U266; Homo sapiens, U-266, growth inhibition",~6.00
same,time-dependent inhibition of growth,U266,significant but less important inhibition of growth
same,pIC50,"LP1 cells [3]; Homo sapiens, LP-1, LP1 cells, growth inhibition",~6.00
same,time-dependent inhibition of growth,LP1 cells [3]; LPI cells,significant but less important inhibition of growth
same,Efficiency for treating multiple myeloma and reduced side-effects,[4],verified
same,plasma cell differentiation induced by the mitogen,[5],only slightly inhibited
same,percentage of trypan blue negative cells,OPM2,56 ± 11%
same,percentage of trypan blue negative cells,NCI,15 ± 7.2%
same,percentage of trypan blue negative cells,LP1 cells [6],81 ± 6.8%
same,CNS toxicity,leukemia,excessive CNS (central nervous system) toxicity
same,anti-leukemic activity,leukemia,no major anti-leukemic activity
same,pIC50,[7],~7.00
same,plasma cells (CD38^higt +) expressing annexin V,[8]; [14],12%
same,percent CD38-high plasma cells among viable cells at 1 µM,"[8]; Homo sapiens, 120 h, read-out: CD38^higt positive cells among viable cells (propidium iodide negative)",7.8%
same,"myeloid cells (CD38^low, CD15 +) positive for the apoptosis marker",[9]; [14],less than 1%
same,CD15+ myelo-monocytic cell percentages versus controls,"[9]; day 5, 10^-6 mol/L",similar
same,DNA fragmentation,NCI cells [10],typical DNA ladders
same,mean decline in cell viability,[11],52.5 ± 17.3%
same,inhibition of growth,[12],marginal
same,double-negative living cells,NCI cells [13]; at 18 hours,only very few
same,"apoptosis (annexin-positive, PI-negative apoptotic cells)",NCI cells [13]; time period of 48 hours,rapidly induced apoptosis
same,"Annexin-positive, PI-negative apoptotic U266 cells",U266 cells,18 % of residual cells
same,remissions,human myeloma cells; all evaluable experiment,remissions have been achieved
same,level of the HuMIg in mouse serum,human myeloma cells; undetectable in some animals,dramatic decrease
